From the supplement of paper PMC11208160 come the findings set out here.

A short description of the series: recombinant barcode read abundance after kanamycin selection (control-corrected) (log10(CPM+1)); higher = more efficient recombination; sequences stand for … in AGTGCAGAGAAAATCGGCCAGTTTTCTCTGCCTGCAGTCCGCATGCCGT…AGATTTATGCAGCGGACTGCCTTTCTCCCAAAGTGATAAACCGGACAGTATCATGGACCGGTTTTCCCGGTAATCCGTATTTGCAAGGTTGGTTTCACT; site = the 11-nt target. In short, it runs like this: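 Recombination efficiency draws on barcodes counted at recombinant junctions in a pooled E. coli screen of targets paired with IS621 bridge RNA target-binding loops. The counts were converted to counts per million, averaged and corrected against the chloramphenicol/ampicillin LB agar control, then reported as log10(CPM+1). Selection plates held chloramphenicol/ampicillin/kanamycin with 0.1 mM IPTG, with two replicates per condition.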
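Further: IS621 recombinase and bridge RNA in Escherichia coli cells.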

Regarding “GTAACCTCTTGGGTTCTAACCTGTTGCCC (site GTAACCTCTTG)”, the “recombinant barcode read abundance (log10)” value came to 0.128.

In the case of “GTAACTACTTGGGTTCTAACCTGTTGCAC (site CTAATTACTGT)”, the “recombinant barcode read abundance (log10)” value came out at 0.0302.

Regarding “GTAACTACTTGGGTTCTAACCTGTTGCAC (site GTAACTACTGT)”, the “recombinant barcode read abundance (log10)” value is 0.926.

As to “GTAACTACTTGGGTTCTAACCTGTTGCGG (site GTAACTACTCC)”, the “recombinant barcode read abundance (log10)” value amounted to 2.1.

For the sequence “GTAACTACTTGGGTTCTAACCTGTTGCGG (site GTCACTACTAC)”, the “recombinant barcode read abundance (log10)” value came to 0.0797.

As to “GTAACTCCTTGGGTTCTAACCTGTTGCCT (site GTAACTCCTAG)”, the “recombinant barcode read abundance (log10)” value came to 0.487.

Regarding “GTAACTCCTTGGGTTCTAACCTGTTGCCT (site TGAACTCCTAG)”, the “recombinant barcode read abundance (log10)” value worked out at 0.041.

“GTAACTGCTTGGGTTCTAACCTGTTGCCT (site GTAAATGCTAG)”: the “recombinant barcode read abundance (log10)” value is 0.373.

As to “GTAACTGCTTGGGTTCTAACCTGTTGCCT (site GTAACTGCTAG)”, the “recombinant barcode read abundance (log10)” value was 0.941.

As for “GTAACTGCTTGGGTTCTAACCTGTTGCCT (site GTAAGTGCTAG)”, the “recombinant barcode read abundance (log10)” value was 0.084.

Turning to “GTAACTGCTTGGGTTCTAACCTGTTGCCT (site GTAATTGCTAG)”, the “recombinant barcode read abundance (log10)” value was found to be 0.0184.

With “GTAAGGACTTGGGTTCTAACCTGTTGCTT (site GTAAGAACTAA)”, the “recombinant barcode read abundance (log10)” value is 0.738.

Turning to “GTAAGGACTTGGGTTCTAACCTGTTGCTT (site GTAAGCACTAA)”, the “recombinant barcode read abundance (log10)” value amounted to 0.156.

As to “GTAAGGACTTGGGTTCTAACCTGTTGCTT (site GTAAGGACTAA)”, the “recombinant barcode read abundance (log10)” value was found to be 1.16.

Regarding “GTAAGGACTTGGGTTCTAACCTGTTGCTT (site GTAAGTACTAA)”, the “recombinant barcode read abundance (log10)” value is 0.0109.

On to “GTAAGTACTTGGGTTCTAACCTGTTGCCA (site ATAAGTCCTTG)”, for which the “recombinant barcode read abundance (log10)” value stood at 0.063.

In the case of “GTAAGTACTTGGGTTCTAACCTGTTGCCA (site GTAAGTACTTG)”, the “recombinant barcode read abundance (log10)” value was determined as 1.54.

Regarding “GTAATTACTTGGGTTCTAACCTGTTGCCT (site GTAATTACTAG)”, the “recombinant barcode read abundance (log10)” value stood at 0.441.

Take “GTAATTACTTGGGTTCTAACCTGTTGCCT (site TACGCACCTTC)”: the “recombinant barcode read abundance (log10)” value was 0.0355.

With “GTACAGCCTTGGGTTCTAACCTGTTGCCT (site GTACAGCCTAG)”, the “recombinant barcode read abundance (log10)” value is 1.35.

Turning to “GTACAGCCTTGGGTTCTAACCTGTTGCCT (site GTACCGCCTAG)”, the “recombinant barcode read abundance (log10)” value amounted to 0.0712.

As for “GTACAGCCTTGGGTTCTAACCTGTTGCCT (site GTACGGCCTAG)”, the “recombinant barcode read abundance (log10)” value came to 0.0431.

Consider “GTACAGCCTTGGGTTCTAACCTGTTGCCT (site GTACTGCCTAG)”, for which the “recombinant barcode read abundance (log10)” value was determined as 0.155.

Regarding “GTACATCCTTGGGTTCTAACCTGTTGCGT (site AAGGTCACTCA)”, the “recombinant barcode read abundance (log10)” value came out at 0.0803.

In the case of “GTACATCCTTGGGTTCTAACCTGTTGCGT (site GTACATCCTAC)”, the “recombinant barcode read abundance (log10)” value came to 2.13.

For “GTACGCGCTTGGGTTCTAACCTGTTGCGT (site CTACGCGCTAA)”, the “recombinant barcode read abundance (log10)” value was 0.392.

With “GTACGCGCTTGGGTTCTAACCTGTTGCGT (site GTACGCGCTAC)”, the “recombinant barcode read abundance (log10)” value was determined as 1.14.

“GTACGCTCTTGGGTTCTAACCTGTTGCTT (site GGAAGCTCTAA)”: the “recombinant barcode read abundance (log10)” value is 0.

For the sequence “GTACGCTCTTGGGTTCTAACCTGTTGCTT (site GTACGCTCTAA)”, the “recombinant barcode read abundance (log10)” value is 0.218.

In the case of “GTACGGTCTTGGGTTCTAACCTGTTGCAT (site GTACGATCTTT)”, the “recombinant barcode read abundance (log10)” value was 0.107.

In the case of “GTACGGTCTTGGGTTCTAACCTGTTGCAT (site GTACGGTCTAT)”, the “recombinant barcode read abundance (log10)” value was found to be 2.

In the case of “GTACGTCCTTGGGTTCTAACCTGTTGCTT (site GTACGTCCTAA)”, the “recombinant barcode read abundance (log10)” value came to 0.777.

On to “GTACGTCCTTGGGTTCTAACCTGTTGCTT (site GTACGTCCTAC)”, for which the “recombinant barcode read abundance (log10)” value is 0.143.

Regarding “GTACGTCCTTGGGTTCTAACCTGTTGCTT (site GTACGTCCTAG)”, the “recombinant barcode read abundance (log10)” value came to 0.299.

With “GTACGTCCTTGGGTTCTAACCTGTTGCTT (site GTACGTCCTAT)”, the “recombinant barcode read abundance (log10)” value was 0.374.

Regarding “GTACTGCCTTGGGTTCTAACCTGTTGCCT (site GTACAGCCTAG)”, the “recombinant barcode read abundance (log10)” value was found to be 0.52.

“GTACTGCCTTGGGTTCTAACCTGTTGCCT (site GTACCGCCTAG)”: the “recombinant barcode read abundance (log10)” value worked out at 0.366.

Regarding “GTACTGCCTTGGGTTCTAACCTGTTGCCT (site GTACGGCCTAG)”, the “recombinant barcode read abundance (log10)” value was 0.531.

On to “GTACTGCCTTGGGTTCTAACCTGTTGCCT (site GTACTGCCTAG)”, for which the “recombinant barcode read abundance (log10)” value is 1.28.

Consider “GTAGACACTTGGGTTCTAACCTGTTGCCG (site GTAAACACTCT)”, for which the “recombinant barcode read abundance (log10)” value is 0.142.

With “GTAGACACTTGGGTTCTAACCTGTTGCCG (site GTAGACACTCG)”, the “recombinant barcode read abundance (log10)” value amounted to 1.28.

For “GTAGACCCTTGGGTTCTAACCTGTTGCCT (site ATAGACCCTAG)”, the “recombinant barcode read abundance (log10)” value turned out to be 2.3.

In the case of “GTAGACCCTTGGGTTCTAACCTGTTGCCT (site CTAGACCCTAG)”, the “recombinant barcode read abundance (log10)” value is 1.16.

Regarding “GTAGACCCTTGGGTTCTAACCTGTTGCCT (site GTAGACCCTAG)”, the “recombinant barcode read abundance (log10)” value stood at 2.5.

Take “GTAGACCCTTGGGTTCTAACCTGTTGCCT (site TTAGACCCTAG)”: the “recombinant barcode read abundance (log10)” value was 1.85.

Regarding “GTAGACCCTTGGGTTCTAACCTGTTGCGT (site GTAGACCCTAC)”, the “recombinant barcode read abundance (log10)” value is 3.46.

Consider “GTAGACCCTTGGGTTCTAACCTGTTGCGT (site GTAGACCCTCA)”, for which the “recombinant barcode read abundance (log10)” value was found to be 0.309.

Take “GTAGAGTCTTGGGTTCTAACCTGTTGCCT (site GAAGAGTCTAG)”: the “recombinant barcode read abundance (log10)” value amounted to 2.36.

For “GTAGAGTCTTGGGTTCTAACCTGTTGCCT (site GCAGAGTCTAG)”, the “recombinant barcode read abundance (log10)” value was determined as 1.94.

Turning to “GTAGAGTCTTGGGTTCTAACCTGTTGCCT (site GGAGAGTCTAG)”, the “recombinant barcode read abundance (log10)” value was 0.239.

With “GTAGAGTCTTGGGTTCTAACCTGTTGCCT (site GTAGAGTCTAG)”, the “recombinant barcode read abundance (log10)” value was found to be 2.84.

With “GTAGCAGCTTGGGTTCTAACCTGTTGCTC (site CTAGTAGCTGA)”, the “recombinant barcode read abundance (log10)” value was determined as 0.146.

For the sequence “GTAGCAGCTTGGGTTCTAACCTGTTGCTC (site GTAGCAGCTGA)”, the “recombinant barcode read abundance (log10)” value is 1.4.

As to “GTAGCGACTTGGGTTCTAACCTGTTGCCT (site ATAGGGACTAG)”, the “recombinant barcode read abundance (log10)” value was 0.149.

Turning to “GTAGCGACTTGGGTTCTAACCTGTTGCCT (site GTAGCGACTAG)”, the “recombinant barcode read abundance (log10)” value turned out to be 1.43.

On to “GTAGGAACTTGGGTTCTAACCTGTTGCTG (site CGGCTGTCTAG)”, for which the “recombinant barcode read abundance (log10)” value was found to be 0.0122.

As for “GTAGGAACTTGGGTTCTAACCTGTTGCTG (site GTAGGAACTCA)”, the “recombinant barcode read abundance (log10)” value was 2.54.

For “GTAGGGACTTGGGTTCTAACCTGTTGCCG (site AGCCCTTCTAA)”, the “recombinant barcode read abundance (log10)” value turned out to be 0.192.

As to “GTAGGGACTTGGGTTCTAACCTGTTGCCG (site GTAGGGACTCG)”, the “recombinant barcode read abundance (log10)” value is 2.47.

In the case of “GTAGTACCTTGGGTTCTAACCTGTTGCCT (site GTAGTAACTAG)”, the “recombinant barcode read abundance (log10)” value stood at 0.0694.

Consider “GTAGTACCTTGGGTTCTAACCTGTTGCCT (site GTAGTACCTAG)”, for which the “recombinant barcode read abundance (log10)” value is 1.73.

As for “GTAGTACCTTGGGTTCTAACCTGTTGCCT (site GTAGTAGCTAG)”, the “recombinant barcode read abundance (log10)” value is 0.247.

For the sequence “GTAGTACCTTGGGTTCTAACCTGTTGCCT (site GTAGTATCTAG)”, the “recombinant barcode read abundance (log10)” value was 0.545.

In the case of “GTAGTCCCTTGGGTTCTAACCTGTTGCCT (site GAAGTCTCTAG)”, the “recombinant barcode read abundance (log10)” value amounted to 0.118.

Regarding “GTAGTCCCTTGGGTTCTAACCTGTTGCCT (site GTAGTCCCTAG)”, the “recombinant barcode read abundance (log10)” value was 2.06.

In the case of “GTAGTGTCTTGGGTTCTAACCTGTTGCTA (site CTAGTGTCTTA)”, the “recombinant barcode read abundance (log10)” value is 1.61.

Take “GTAGTGTCTTGGGTTCTAACCTGTTGCTA (site GTAGTGTCTTA)”: the “recombinant barcode read abundance (log10)” value was 2.37.

In the case of “GTATCAACTTGGGTTCTAACCTGTTGCCT (site GTATCAACTAG)”, the “recombinant barcode read abundance (log10)” value was 0.35.

Take “GTATCAACTTGGGTTCTAACCTGTTGCCT (site GTATCACCTAG)”: the “recombinant barcode read abundance (log10)” value worked out at 0.0908.

With “GTATCAACTTGGGTTCTAACCTGTTGCCT (site GTATCAGCTAG)”, the “recombinant barcode read abundance (log10)” value turned out to be 0.0211.

“GTATCAACTTGGGTTCTAACCTGTTGCCT (site GTATCATCTAG)”: the “recombinant barcode read abundance (log10)” value turned out to be 0.

For “GTATCACCTTGGGTTCTAACCTGTTGCCT (site GTATCAACTAG)”, the “recombinant barcode read abundance (log10)” value worked out at 0.19.

Consider “GTATCACCTTGGGTTCTAACCTGTTGCCT (site GTATCACCTAG)”, for which the “recombinant barcode read abundance (log10)” value was determined as 1.44.

As to “GTATCACCTTGGGTTCTAACCTGTTGCCT (site GTATCAGCTAG)”, the “recombinant barcode read abundance (log10)” value turned out to be 0.187.

Consider “GTATCACCTTGGGTTCTAACCTGTTGCCT (site GTATCATCTAG)”, for which the “recombinant barcode read abundance (log10)” value worked out at 0.0641.

In the case of “GTATGACCTTGGGTTCTAACCTGTTGCCT (site GTATGAACTAG)”, the “recombinant barcode read abundance (log10)” value amounted to 0.0455.

On to “GTATGACCTTGGGTTCTAACCTGTTGCCT (site GTATGACCTAG)”, for which the “recombinant barcode read abundance (log10)” value worked out at 1.86.
